Measurements: ChEMBL document CHEMBL4130353, “2-Substituted 3,7,8-trimethylnaphtho[1,2-b]furan-4,5-diones as specific L-shaped NQO1-mediated redox modulators for the treatment of non-small cell lung cancer” (Eur J Med Chem, 2017)
Activity calls are given as the source filed them. The rule behind the calls is not given here.

What was measured:
Mus musculus = assay: Toxicity in athymic nude mouse xenografted with human A549 cells assessed as effect on body weight at 50 mg/kg, iv administered every other day for 3 weeks; assay type: organism-based; details: in vivo, 504 h
[1] = molecular target: NAD(P)H dehydrogenase [quinone] 1 (Homo sapiens) (UniProt P15559); assay: Substrate activity at NQO1 in human A549 cells assessed as induction of ROS-induced Akt phosphorylation at […] at 5 uM after 3 hrs by Western blot analysis relative to control; assay type: cell-based
HCT-116 = assay: Cytotoxicity against human HCT116 cells assessed as cell growth inhibition preincubated for 24 hrs followed by compound washout measured after 72 hrs by MTT assay; assay type: functional, cell-based
[2] = molecular target: NAD(P)H dehydrogenase [quinone] 1 (Homo sapiens) (UniProt P15559); assay: Substrate activity at recombinant human NQO1 expressed in Escherichia coli assessed as reduction rate by measuring umol of NADPH utilized per umol of enzyme at 10 uM preincubated for 3 mins followed by NADPH addition measured at 2 secs interval for 5 mins by UV-Vis spectroscopy
NCI-H1299 = assay: Cytotoxicity against human NCI-H1299 cells assessed as assessed as cell growth inhibition for 24 hrs followed by compound washout measured after 72 hrs by MTT assay; assay type: functional, cell-based
A549 [3] = assay: Antitumor activity against human A549 cells xenografted in athymic nude mouse assessed as tumor growth inhibition at 30 mg/kg, iv administered every other day for 3 weeks measured every day during compound dosing relative to control; assay type: functional; details: 504 h, read-out: TGI
A549 [4] = assay: Effect on total ERK protein levels in human A549 cells at 5 uM after 3 hrs by Western blot analysis relative to control; assay type: ADME, cell-based; details: a549, 3 h
[5] = molecular target: NAD(P)H dehydrogenase [quinone] 1 (Homo sapiens) (UniProt P15559); assay: Substrate activity at NQO1 in human A549 cells assessed as induction of ROS-induced Akt phosphorylation at S473 after 3 hrs by Western blot analysis; assay type: cell-based
A549 [6] = assay: Effect on total AKT protein levels in human A549 cells at 10 uM after 3 hrs in presence of NAC by Western blot analysis relative to control; assay type: ADME, cell-based; details: a549, 3 h
A549 [7] = assay: Effect on total p38 protein levels in human A549 cells at 1 uM after 3 hrs by Western blot analysis relative to control; assay type: ADME, cell-based; details: a549, 3 h
HepG2 = assay: Cytotoxicity against human HepG2 cells assessed as cell growth inhibition preincubated for 24 hrs followed by compound washout measured after 72 hrs by MTT assay; assay type: functional, cell-based
A549/TR = assay: Cytotoxicity against human A549/TR cells assessed as cell growth inhibition preincubated for 24 hrs followed by compound washout measured after 72 hrs by MTT assay; assay type: functional, cell-based
A549 [8] = assay: Effect on total ERK protein levels in human A549 cells at 10 uM after 3 hrs by Western blot analysis relative to control; assay type: ADME, cell-based; details: a549, 3 h
A549 [9] = assay: Effect on total p38 protein levels in human A549 cells at 10 uM after 3 hrs in presence of DIC by Western blot analysis relative to control; assay type: ADME, cell-based; details: a549, 3 h
Homo sapiens = species on record: Homo sapiens; assay: Selectivity ratio for substrate activity at recombinant human NQO1 to substrate activity at CBR (unknown origin)
[10] = molecular target: NAD(P)H dehydrogenase [quinone] 1 (Homo sapiens) (UniProt P15559); assay: Substrate activity at NQO1 in human A549 cells assessed as induction of ROS-induced Akt phosphorylation at […] at 1 uM after 3 hrs by Western blot analysis relative to control; assay type: cell-based
[11] = molecular target: NAD(P)H dehydrogenase [quinone] 1 (Homo sapiens) (UniProt P15559); assay: Substrate activity at NQO1 in human A549 cells assessed as induction of ROS-induced JNK phosphorylation at 5 uM after 3 hrs by Western blot analysis relative to control; assay type: cell-based
A549 [12] = assay: Induction of apoptosis in human A549 cells assessed as nuclei condensation at 0.1 to 5 uM after 24 hrs by DAPI-staining based microscopy; assay type: functional, cell-based
HEK293 = assay: Cytotoxicity against HEK293 cells assessed as cell growth inhibition preincubated for 24 hrs followed by compound washout measured after 72 hrs by MTT assay; assay type: functional, cell-based; details: Homo sapiens
[13] = molecular target: NAD(P)H dehydrogenase [quinone] 1 (Homo sapiens) (UniProt P15559); assay: Substrate activity at NQO1 in human A549 cells assessed as induction of ROS-induced p38 phosphorylation at T180/Y182 after 3 hrs by Western blot analysis; assay type: cell-based
A549 [14] = assay: Effect on total AKT protein levels in human A549 cells at 1 uM after 3 hrs by Western blot analysis relative to control; assay type: ADME, cell-based; details: a549, 3 h
[15] = molecular target: NAD(P)H dehydrogenase [quinone] 1 (Homo sapiens) (UniProt P15559); assay: Substrate activity at NQO1 in human A549 cells assessed as induction of ROS-induced Akt phosphorylation at […] after 3 hrs by Western blot analysis; assay type: cell-based
NCI-H596 = assay: Cytotoxicity against human NCI-H596 cells assessed as cell growth inhibition preincubated for 24 hrs followed by compound washout measured after 72 hrs by MTT assay; assay type: functional, cell-based
A549 [16] = assay: Effect on total ERK protein levels in human A549 cells at 10 uM after 3 hrs in presence of NAC by Western blot analysis relative to control; assay type: ADME, cell-based; details: a549, 3 h
A549 [17] = assay: Induction of apoptosis in human A549 cells assessed as increase in cleaved PARP expression at 10 uM after 24 hrs in presence of NAC by Western blot analysis; assay type: functional, cell-based
[18] = molecular target: T1, NADPH--cytochrome P450 reductase (Homo sapiens, UniProt P16435); assay: Substrate activity at human CPR expressed in baculovirus expression system assessed as reduction rate by measuring umol of NADPH utilized per umol of enzyme at 10 uM preincubated for 3 mins followed by NADPH addition measured at 2 secs interval for 5 mins by UV-Vis spectroscopy; assay type: ADME
T1 sequence (P16435 whole entry): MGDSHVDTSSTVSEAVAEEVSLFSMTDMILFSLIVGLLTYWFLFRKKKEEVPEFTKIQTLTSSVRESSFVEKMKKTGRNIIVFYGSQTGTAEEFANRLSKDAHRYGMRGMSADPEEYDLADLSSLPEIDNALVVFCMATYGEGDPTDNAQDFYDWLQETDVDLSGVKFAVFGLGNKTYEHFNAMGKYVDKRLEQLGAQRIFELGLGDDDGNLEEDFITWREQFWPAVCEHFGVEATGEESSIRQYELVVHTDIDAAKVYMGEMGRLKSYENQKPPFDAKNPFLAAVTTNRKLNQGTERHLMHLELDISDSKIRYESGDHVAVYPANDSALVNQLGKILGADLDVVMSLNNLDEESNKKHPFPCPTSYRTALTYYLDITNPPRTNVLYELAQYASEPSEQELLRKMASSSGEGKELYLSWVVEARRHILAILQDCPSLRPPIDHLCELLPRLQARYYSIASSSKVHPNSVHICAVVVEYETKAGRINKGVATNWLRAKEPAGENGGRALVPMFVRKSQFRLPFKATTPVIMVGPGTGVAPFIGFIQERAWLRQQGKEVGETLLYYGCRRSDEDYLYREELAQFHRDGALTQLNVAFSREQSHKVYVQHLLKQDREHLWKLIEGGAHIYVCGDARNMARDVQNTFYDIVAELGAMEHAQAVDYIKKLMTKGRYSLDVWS

[19] = molecular target: NAD(P)H dehydrogenase [quinone] 1 (Homo sapiens) (UniProt P15559); assay: Substrate activity at NQO1 in human A549 cells assessed as induction of ROS-induced JNK phosphorylation after 3 hrs by Western blot analysis; assay type: cell-based
A549 [20] = assay: Effect on total ERK protein levels in human A549 cells at 10 uM after 3 hrs in presence of DIC by Western blot analysis relative to control; assay type: ADME, cell-based; details: a549, 3 h
[21] = molecular target: NAD(P)H dehydrogenase [quinone] 1 (Homo sapiens) (UniProt P15559); assay: Substrate activity at NQO1 in human A549 cells assessed as induction of ROS-induced ERK phosphorylation at 5 uM after 3 hrs by Western blot analysis relative to control; assay type: cell-based

NAD(P)H dehydrogenase [quinone] 1 (Homo sapiens), sequence (P15559 whole entry): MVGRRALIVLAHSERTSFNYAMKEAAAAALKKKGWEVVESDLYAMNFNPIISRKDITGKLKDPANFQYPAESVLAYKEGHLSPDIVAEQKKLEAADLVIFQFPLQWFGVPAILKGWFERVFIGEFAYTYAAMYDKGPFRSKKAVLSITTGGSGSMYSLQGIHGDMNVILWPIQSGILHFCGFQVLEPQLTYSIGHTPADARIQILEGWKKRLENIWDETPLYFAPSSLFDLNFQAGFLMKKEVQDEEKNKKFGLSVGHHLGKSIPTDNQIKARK

fold change (FC) [1]: 2.96
Activity [2]: 1520 µmol/min
fold change (FC) (A549 [4]): 0.97
Activity [5]: Dose-dependent effect
fold change (FC) (A549 [6]): 1.07
fold change (FC) (A549 [7]): 0.93
fold change (FC) (A549 [8]): 1.02
fold change (FC) (A549 [9]): 1.03
Selectivity ratio (Homo sapiens): 8.49
fold change (FC) [10]: 2.38
fold change (FC) [11]: 25.4
Activity [13]: Dose-dependent effect
fold change (FC) (A549 [14]): 1.07
Activity [15]: Dose-dependent effect
fold change (FC) (A549 [16]): 1.11
Activity [18]: 73 µmol NADPH/min/µmol enzyme
Activity [19]: Dose-dependent effect
fold change (FC) (A549 [20]): 0.87
fold change (FC) [21]: 2.41
Structure (SMILES): Cc1cc2c(cc1C)-c1oc(CNc3ccc(CN4CCOCC4)cc3)c(C)c1C(=O)C2=O
Activity (Mus musculus): Non-Toxic
IC50 (HCT-116): 4.9 µM
IC50 (NCI-H1299): 3.8 µM
inhibition in vivo at 30 mg/kg (A549 [3]): 87.1%
IC50 (HepG2): 4.3 µM
IC50 (A549/TR): 2.2 µM
Activity (A549 [12]): Active
IC50 (HEK293): 3.9 µM
IC50 (NCI-H596): 30 µM
Activity (A549 [17]): inactive
